Legend:
Plasmodium falciparum = experiment: Antiplasmodial activity against Plasmodium falciparum Dd2 incubated under low oxygen conditions after 72 hrs by SYBR green assay; format: functional, organism-based; settings: Dd2, 72 h
HEK293 [1] = experiment: Cytotoxicity against HEK293 cells assessed as reduction in cell viability at 100 uM after 24 hrs by resazurin dye based fluorescence assay; settings: human, hek293, 24 h
HEK293 [2] = experiment: Cytotoxicity against HEK293 cells assessed as reduction in cell viability up to 3.125 uM after 24 hrs by resazurin dye based fluorescence assay; settings: human, hek293, 24 h
[3] = Cytotoxicity against HEK293 cells assessed as reduction in cell viability at 50 uM after 24 hrs by resazurin dye based fluorescence assay; settings: human, read-out: INH

| IC50 (Plasmodium falciparum) [µM] | Structure (SMILES) | Activity (HEK293 [1]) | Activity (HEK293 [2]) | cytotoxicity at 24 h, 50 µM [3] [%] |
| --- | --- | --- | --- | --- |
| > 80 | CCCCCC(=O)c1c(O)cc(O)cc1O |  |  |  |
| 3.81 | CC(C)=CCCC1=CCC2(C(=O)C(C)(C)C(=O)C(C)(C)C2=O)C(CC(C)C)C1 (racemic) | Non-toxic |  |  |
| 12.1 | CC(=O)O[C@H]1CC[C@]2(C)[C@H]3CC=C4[C@@H]5[C@@H](C)[C@H](C)CC[C@]5(C(=O)O)CC[C@@]4(C)[C@]3(C)CC[C@H]2C1(C)C [O-ACETYLURSOLIC ACID] |  |  |  |
| 0.1 | CCCCCC(=O)c1c(O)cc(O)c2c1OC1=C(C(=O)C(C)(C)C(=O)C1(C)C)C2CC(C)C (racemic) |  | Non-toxic | 58 |
| > 40 | C[C@H]1[C@H](C)CC[C@]2(C(=O)O)CC[C@]3(C)C(=CC[C@@H]4[C@@]5(C)CC[C@H](O)C(C)(C)[C@@H]5CC[C@]43C)[C@H]12 [URSOLIC ACID] |  |  |  |

| Structure (SMILES) | IC50 (Plasmodium falciparum) [µM] | Activity (HEK293 [1]) | Activity (HEK293 [2]) | cytotoxicity at 24 h, 50 µM [3] [%] |
| --- | --- | --- | --- | --- |
| C=C(C)[C@@H]1CC[C@]2(C(=O)O)CC[C@]3(C)[C@H](CC[C@@H]4[C@@]5(C)CC[C@H](O)C(C)(C)[C@@H]5CC[C@]43C)[C@@H]12 [BETULINIC ACID] | 3.44 |  |  |  |
| C[C@@H]1CC[C@H]2[C@@H](C)C(=O)O[C@@H]3O[C@@]4(C)CC[C@@H]1[C@]32OO4 [ARTEMISININ] | 0.0062 |  |  |  |

From ChEMBL document CHEMBL3792287, “Antiplasmodial phloroglucinol derivatives from Syncarpia glomulifera” (Bioorg Med Chem, 2016)
